Results published in patent US20150105252A1, “SUBSTITUTED PYRAZOLES AS HERBICIDES” (E I DU PONT DE NEMOURS AND COMPANY, priority 2013, published 2015).

Experiments:
[1] = tested on: common waterhemp; assay: Test F preemergence; format: in vivo, Amaranthus rudis
Excerpt: (§1) Seeds of plant species selected from corn (Zea mays), soybean (Glycine max), velvetleaf (Abutilon theophrasti), lambsquarters (Chenopodium album), wild poinsettia (Euphorbia heterophylla), pigweed, palmer (palmer pigweed, Amaranthus palmeri), common waterhemp (Amaranthus rudis), surinam grass (Brachiaria decumbens), large crabgrass (Digitaria sanguinalis), crabgrass, Brazil (Brazilian crabgrass, Digitaria horizontalis), fall panicum (Panicum dichotomiflorum), giant foxtail (Setaria faberii), green foxtail (Setaria viridis), goosegrass (Eleusine indica), johnsongrass (Sorghum halepense), common ragweed (Ambrosia elation), barnyardgrass (Echinochloa crus-galli), southern sandbur (Cenchrus echinatus), arrowleaf sida (Sida rhombifolia), Italian ryegrass (Lolium multiflorum), dayflower, VA (Virginia (VA) dayflower, Commelina virginica), field bindweed (Convolvulus arvensis), cocklebur (common cocklebur, Xanthium strumarium), morningglory (Ipomoea coccinea), nightshade (eastern black nightshade, Solanum ptycanthum), kochia (Kochia scoparia), yellow nutsedge (Cyperus esculentus), and hairy beggarticks (Bidens pilosa), were planted into a silt loam soil and treated preemergence with test chemicals formulated in a non-phytotoxic solvent mixture which included a surfactant.
(§2) At the same time, plants from these crop and weed species and also horseweed (Canada horseweed, Conyza canadensis), smartweed (ladysthumb smartweed, Polygonum persicaria), waterhemp_RES1, (ALS & Triazine resistant common waterhemp, Amaranthus rudis), and waterhemp_RES2, (ALS & HPPD resistant common waterhemp, Amaranthus rudis) were treated with postemergence applications of test chemicals formulated in the same manner. Plants ranged in height from 2 to 18 cm for postemergence treatments (1- to 4-leaf stage). Treated plants and controls were maintained in a greenhouse for 14 to 21 days, after which time all species were compared to controls and visually evaluated. Plant response ratings, summarized in Table F, are based on a scale of 0 to 100 where 0 is no effect and 100 is complete control. A dash (-) response means no test result.

[2] = tested on: buckwheat, wild; assay: Test D postemergence; format: in vivo, Polygonum convolvulus; details: scale 0 to 100
How it was run: (§3)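 Whole-plant herbicidal activity; pre- and postemergence sprays. Soil: silt loam (pre); peat/vermiculite medium (post, 1–4 leaf). Assessment: 14–21 days, visual, 0 = no effect, 100 = complete control.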

[3] = tested on: radish, wild; assay: Test D preemergence; format: in vivo, Raphanus raphanistrum; details: scale 0 to 100
Excerpt: (§4) Seeds of plant species selected from bluegrass (annual bluegrass, Poa annua), blackgrass (Alopecurus myosuroides), canarygrass (littleseed canarygrass, Phalaris minor), chickweed (common chickweed, Stellaria media), galium (catchweed bedstraw, Galium aparine), bromegrass, downy (downy bromegrass, Bromus tectorum), field poppy (Papaver rhoeas), field violet (Viola arvensis), foxtail, green (green foxtail, Setaria viridis), deadnettle (henbit deadnettle, Lamium amplexicaule), ryegrass, Italian (Italian ryegrass, Lolium multiflorum), kochia (Kochia scoparia), lambsquarters (Chenopodium album), oilseed rape (Brassica napus), pigweed (redroot pigweed, Amaranthus retroflexus), chamomile (scentless chamomile, Matricaria inodora), speedwell (bird's-eye speedwell, Veronica persica), barley, spring (spring barley, Hordeum vulgare), wheat, spring (spring wheat, Triticum aestivum), buckwheat, wild (wild buckwheat, Polygonum convolvulus), mustard, wild (wild mustard, Sinapis arvensis), oat, wild (wild oat, Avena fatua), radish, wild (wild radish, Raphanus raphanistrum), windgrass (Apera spica-venti), Russian thistle (Salsola kali), barley, winter (winter barley, Hordeum vulgare), and wheat, winter (winter wheat, Triticum aestivum) were planted into a silt loam soil and treated preemergence with test chemicals formulated in a non-phytotoxic solvent mixture which included a surfactant.
(§5) At the same time, these species were planted in pots containing Redi-Earth® planting medium (Scotts Company, 14111 Scottslawn Road, Marysville, Ohio 43041) comprising spaghnum peat moss, vermiculite, wetting agent and starter nutrients and treated with postemergence applications of the test chemicals formulated in the same manner. Plants ranged in height from 2 to 18 cm (1- to 4-leaf stage). Treated plants and controls were maintained in a controlled growth environment for 14 to 21 days after which time all species were compared to controls and visually evaluated. Plant response ratings, summarized in Table D, are based on a scale of 0 to 100 where 0 is no effect and 100 is complete control. A dash (-) response means no test result.

[4] = tested on: canarygrass; assay: Test D postemergence; format: in vivo, Phalaris minor; details: scale 0 to 100
How it was run: as §3

[5] = tested on: lambsquarters; assay: Test D postemergence; format: in vivo, Chenopodium album; details: scale 0 to 100
How it was run: as §3

[6] = tested on: ryegrass, Italian; assay: Test D postemergence; format: in vivo, Lolium multiflorum; details: scale 0 to 100
Excerpt: as §4, §5

[7] = tested on: galium; assay: Test D postemergence; format: in vivo, Galium aparine; details: scale 0 to 100
How it was run: as §3

[8] = tested on: yellow nutsedge; assay: Test F preemergence; format: in vivo, Cyperus esculentus
How it was run: (§6)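 Greenhouse study; evaluation window 14–21 days post-treatment. Seedlings sprayed postemergence measured 2–18 cm, while preemergence treatments went on silt loam soil. Non-phytotoxic solvent mixture with surfactant served as vehicle; response assessed by eye, 0–100 scale.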

[9] = tested on: velvetleaf; assay: Test F preemergence; format: in vivo, Abutilon theophrasti
Excerpt: as §1, §2

[10] = tested on: pigweed, palmer; assay: Test F preemergence; format: in vivo, Amaranthus palmeri
How it was run: as §6

[11] = tested on: windgrass; assay: Test D preemergence; format: in vivo, Apera spica-venti; details: scale 0 to 100
How it was run: as §3

[12] = tested on: arrowleaf sida; assay: Test F preemergence; format: in vivo, Sida rhombifolia
Excerpt: as §1, §2

[13] = tested on: chickweed; assay: Test D preemergence; format: in vivo, Stellaria media; details: scale 0 to 100
How it was run: as §3

[14] = tested on: dayflower, VA; assay: Test F preemergence; format: in vivo, Commelina virginica
How it was run: as §6

[15] = Preemergence, 31 g ai/ha, scale 0 to 100
[16] = Preemergence, 62 g ai/ha, scale 0 to 100
[17] = Preemergence, 125 g ai/ha, scale 0 to 100
[18] = preemergence, 8 g ai/ha, scale 0 to 100, 100 is complete control
[19] = preemergence, 16 g ai/ha, scale 0 to 100, 100 is complete control

In the case of `CCc1cc(C(=O)NCC(F)(F)F)nn1Cc1ccnc(C(F)(F)F)c1` [Compound 78, 5-ethyl-N-(2,2,2-trifluoroethyl)-1-[[(2-trifluoromethyl)-4-pyridinyl]methyl]-1H-pyrazole-3-carboxamide], the “Plant response rating, Common Waterhemp” value [1, 15] is reported as 100, the “Plant response rating, Common Waterhemp” value [1, 16] is reported as 100 and the “Plant response rating, Common Waterhemp” value [1, 17] is reported as 100. The “Plant response rating, Common Waterhemp” value [1, 18] was 65, the “Plant response rating, Common Waterhemp” value [1, 19] was 100 and the “Buckwheat, Wild plant response rating” value ([2]; Postemergence, 31 g ai/ha) was 50. For the same molecule, the “Buckwheat, Wild plant response rating” value ([2]; Postemergence, 125 g ai/ha) was 65, the “Buckwheat, Wild plant response rating” value ([2]; Postemergence, 250 g ai/ha) was 70 and the “Buckwheat, Wild plant response rating” value ([2]; postemergence, 62 g ai/ha) was 60. The “Plant response rating, Radish, Wild” value ([3]; 31 g ai/ha) was 100, the “Plant response rating, Radish, Wild” value ([3]; 62 g ai/ha) was 100 and the “Plant response rating, Radish, Wild” value ([3]; 125 g ai/ha) was 100. For the same molecule, the “Plant response rating, Radish, Wild” value ([3]; 250 g ai/ha) was 100, the “Canarygrass plant response rating” value ([4]; Postemergence, 31 g ai/ha) was 5 and the “Canarygrass plant response rating” value ([4]; Postemergence, 125 g ai/ha) was 15. The “Canarygrass plant response rating” value ([4]; Postemergence, 250 g ai/ha) was 25, the “Canarygrass plant response rating” value ([4]; postemergence, 62 g ai/ha) was 10 and the “Lambsquarters plant response rating” value ([5]; Postemergence, 31 g ai/ha) was 20. The “Lambsquarters plant response rating” value ([5]; Postemergence, 125 g ai/ha) was 80, the “Lambsquarters plant response rating” value ([5]; Postemergence, 250 g ai/ha) was 80 and the “Lambsquarters plant response rating” value ([5]; postemergence, 62 g ai/ha) was 60. For the same molecule, the “Ryegrass, Italian plant response rating” value ([6]; Postemergence, 31 g ai/ha) was 5, the “Ryegrass, Italian plant response rating” value ([6]; Postemergence, 125 g ai/ha) was 10 and the “Ryegrass, Italian plant response rating” value ([6]; Postemergence, 250 g ai/ha) was 45. The “Ryegrass, Italian plant response rating” value ([6]; postemergence, 62 g ai/ha) was 5, the “Galium plant response rating” value ([7]; Postemergence, 31 g ai/ha) was 60 and the “Galium plant response rating” value ([7]; Postemergence, 125 g ai/ha) was 80. For the same molecule, the “Galium plant response rating” value ([7]; Postemergence, 250 g ai/ha) was 85, the “Galium plant response rating” value ([7]; postemergence, 62 g ai/ha) was 70 and the “Plant response rating, Yellow Nutsedge” value [8, 15] was 20. The “Plant response rating, Yellow Nutsedge” value [8, 16] was 70, the “Plant response rating, Yellow Nutsedge” value [8, 17] was 90 and the “Plant response rating, Yellow Nutsedge” value [8, 18] was 0. The “Plant response rating, Yellow Nutsedge” value [8, 19] was 0, the “Plant response rating, Velvetleaf” value [9, 15] was 10 and the “Plant response rating, Velvetleaf” value [9, 16] was 75. The “Plant response rating, Velvetleaf” value [9, 17] was 95, the “Plant response rating, Velvetleaf” value [9, 18] was 5 and the “Plant response rating, Pigweed, Palmer” value [10, 15] was 35. For the same molecule, the “Plant response rating, Pigweed, Palmer” value [10, 16] was 100, the “Plant response rating, Pigweed, Palmer” value [10, 17] was 100 and the “Plant response rating, Pigweed, Palmer” value [10, 18] was 20. The “Plant response rating, Pigweed, Palmer” value [10, 19] was 40, the “Plant response rating, Windgrass” value ([11]; 31 g ai/ha) was 90 and the “Plant response rating, Windgrass” value ([11]; 62 g ai/ha) was 100. The “Plant response rating, Windgrass” value ([11]; 125 g ai/ha) was 100, the “Plant response rating, Windgrass” value ([11]; 250 g ai/ha) was 100 and the “Plant response rating, Arrowleaf Sida” value [12, 15] was 0. The “Plant response rating, Arrowleaf Sida” value [12, 16] was 20, the “Plant response rating, Arrowleaf Sida” value [12, 17] was 35 and the “Plant response rating, Arrowleaf Sida” value [12, 18] was 0. For the same molecule, the “Plant response rating, Arrowleaf Sida” value [12, 19] was 0, the “Plant response rating, Chickweed” value ([13]; 31 g ai/ha) was 100 and the “Plant response rating, Chickweed” value ([13]; 62 g ai/ha) was 100. The “Plant response rating, Chickweed” value ([13]; 125 g ai/ha) was 100, the “Plant response rating, Chickweed” value ([13]; 250 g ai/ha) was 100 and the “Plant response rating, Dayflower, VA” value [14, 15] was 50. For the same molecule, the “Plant response rating, Dayflower, VA” value [14, 16] was 95, the “Plant response rating, Dayflower, VA” value [14, 17] was 100 and the “Plant response rating, Dayflower, VA” value [14, 18] was 0. The “Plant response rating, Dayflower, VA” value [14, 19] was 0.
